Tested on: 922993-354-T-J3-PDC complex spheroids, viability
Experiment: Anticancer human tumor 922993-354-T-J3-PDC patient-derived endometrial carcinoma cell line growth inhibition [GQUAD]
Details: for IC50: curve of first compound; for viability, T/C: stronger effect = lower value
In short: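 Multi-cell-type spheroids of tumor cells with HUVEC and mesenchymal stem cells, treated with drug combinations. Concentrations descend in half-log steps from near clinical Cmax, or from 10 microM where Cmax is unknown; viability read-out.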

[1] = second compound 0.0316 µM, first compound 0.0316 µM
[2] = second compound 0.0316 µM, first compound 0.1 µM
[3] = second compound 0.0316 µM, first compound 0.316 µM
[4] = second compound 0.0316 µM, first compound 1 µM
[5] = second compound 0.0316 µM, first compound 3.16 µM
[6] = second compound 0.0316 µM, first compound 10 µM
[7] = second compound 0.1 µM, first compound 0.0316 µM
[8] = second compound 0.1 µM, first compound 0.1 µM
[9] = second compound 0.1 µM, first compound 0.316 µM
[10] = second compound 0.1 µM, first compound 1 µM
[11] = second compound 0.1 µM, first compound 3.16 µM
[12] = second compound 0.1 µM, first compound 10 µM
[13] = second compound 0.316 µM, first compound 0.0316 µM
[14] = second compound 0.316 µM, first compound 0.1 µM
[15] = second compound 0.316 µM, first compound 0.316 µM
[16] = second compound 0.316 µM, first compound 1 µM
[17] = second compound 0.316 µM, first compound 3.16 µM
[18] = second compound 0.316 µM, first compound 10 µM
[19] = second compound 1 µM, first compound 0.0316 µM
[20] = second compound 1 µM, first compound 0.1 µM
[21] = second compound 1 µM, first compound 0.316 µM
[22] = second compound 1 µM, first compound 1 µM
[23] = second compound 1 µM, first compound 3.16 µM
[24] = second compound 1 µM, first compound 10 µM
[25] = second compound 3.16 µM, first compound 0.0316 µM
[26] = second compound 3.16 µM, first compound 0.1 µM
[27] = second compound 3.16 µM, first compound 0.316 µM
[28] = second compound 3.16 µM, first compound 1 µM
[29] = second compound 3.16 µM, first compound 3.16 µM
[30] = second compound 3.16 µM, first compound 10 µM
[31] = second compound 10 µM, first compound 0.0316 µM
[32] = second compound 10 µM, first compound 0.1 µM
[33] = second compound 10 µM, first compound 0.316 µM
[34] = second compound 10 µM, first compound 1 µM
[35] = second compound 10 µM, first compound 3.16 µM
[36] = second compound 10 µM, first compound 10 µM
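Further: spheroids exposed to compounds for seven days.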
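Wherever viability, T/C is given: 100% = DMSO vehicle control viability.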

CC(C)n1c(=O)n(C)c2cnc3cc(F)c(-c4ccc(OCCCN5CCCCC5)nc4)cc3c21 + Cc1[nH]c2ccc(F)cc2c1-c1nc2c3cccnc3c3ncccc3c2[nH]1
IC50 (second compound 0.0316 µM): > 10 µM | IC50 (second compound 0.1 µM): > 10 µM | IC50 (second compound 0.316 µM): > 10 µM | IC50 (second compound 1 µM): > 10 µM | IC50 (second compound 3.16 µM): > 10 µM | IC50 (second compound 10 µM): > 10 µM | viability, T/C [1]: 110% | viability, T/C [2]: 123% | viability, T/C [3]: 113% | viability, T/C [4]: 91.4% | viability, T/C [5]: 77.3% | viability, T/C [6]: 71.3% | viability, T/C [7]: 116% | viability, T/C [8]: 95.3% | viability, T/C [9]: 103% | viability, T/C [10]: 96.2% | viability, T/C [11]: 72.9% | viability, T/C [12]: 60.3% | viability, T/C [13]: 91.8% | viability, T/C [14]: 124% | viability, T/C [15]: 115% | viability, T/C [16]: 114% | viability, T/C [17]: 88.2% | viability, T/C [18]: 62.9% | viability, T/C [19]: 118% | viability, T/C [20]: 83.4% | viability, T/C [21]: 131% | viability, T/C [22]: 112% | viability, T/C [23]: 88.5% | viability, T/C [24]: 75.9% | viability, T/C [25]: 100% | viability, T/C [26]: 89.5% | viability, T/C [27]: 91.5% | viability, T/C [28]: 95.1% | viability, T/C [29]: 84.8% | viability, T/C [30]: 80.8% | viability, T/C [31]: 98.9% | viability, T/C [32]: 93.7% | viability, T/C [33]: 94% | viability, T/C [34]: 97.4% | viability, T/C [35]: 85.5% | viability, T/C [36]: 73.8%

CCCS(=O)(=O)Nc1ccc(F)c(C(=O)c2c[nH]c3ncc(-c4ccc(Cl)cc4)cc23)c1F + Cc1[nH]c2ccc(F)cc2c1-c1nc2c3cccnc3c3ncccc3c2[nH]1
IC50 (second compound 0.0316 µM): > 10 µM | IC50 (second compound 0.1 µM): > 10 µM | IC50 (second compound 0.316 µM): > 10 µM | IC50 (second compound 1 µM): > 10 µM | IC50 (second compound 3.16 µM): > 10 µM | IC50 (second compound 10 µM): > 10 µM | viability, T/C [1]: 113% | viability, T/C [2]: 101% | viability, T/C [3]: 78.5% | viability, T/C [4]: 69.4% | viability, T/C [5]: 77.3% | viability, T/C [6]: 68.4% | viability, T/C [7]: 119% | viability, T/C [8]: 99.2% | viability, T/C [9]: 75.7% | viability, T/C [10]: 81.2% | viability, T/C [11]: 76.9% | viability, T/C [12]: 57.1% | viability, T/C [13]: 101% | viability, T/C [14]: 82.4% | viability, T/C [15]: 81.5% | viability, T/C [16]: 77.2% | viability, T/C [17]: 78.2% | viability, T/C [18]: 56.2% | viability, T/C [19]: 93% | viability, T/C [20]: 83.5% | viability, T/C [21]: 61.9% | viability, T/C [22]: 92.9% | viability, T/C [23]: 82% | viability, T/C [24]: 56.7% | viability, T/C [25]: 91.2% | viability, T/C [26]: 98.6% | viability, T/C [27]: 82.5% | viability, T/C [28]: 87.5% | viability, T/C [29]: 76.4% | viability, T/C [30]: 60.9% | viability, T/C [31]: 96.9% | viability, T/C [32]: 99.7% | viability, T/C [33]: 85.4% | viability, T/C [34]: 81.4% | viability, T/C [35]: 76.9% | viability, T/C [36]: 64%
